The text below walks through data of patent US20180237441A1, “Chemical Compounds” (GlaxoSmithKline Intellectual Property (No.2) Limited, priority 2015, published 2018).

The target of one assay is T1, PERK (Homo sapiens, UniProt Q9NZJ5).
T1 sequence (Q9NZJ5 30-1116): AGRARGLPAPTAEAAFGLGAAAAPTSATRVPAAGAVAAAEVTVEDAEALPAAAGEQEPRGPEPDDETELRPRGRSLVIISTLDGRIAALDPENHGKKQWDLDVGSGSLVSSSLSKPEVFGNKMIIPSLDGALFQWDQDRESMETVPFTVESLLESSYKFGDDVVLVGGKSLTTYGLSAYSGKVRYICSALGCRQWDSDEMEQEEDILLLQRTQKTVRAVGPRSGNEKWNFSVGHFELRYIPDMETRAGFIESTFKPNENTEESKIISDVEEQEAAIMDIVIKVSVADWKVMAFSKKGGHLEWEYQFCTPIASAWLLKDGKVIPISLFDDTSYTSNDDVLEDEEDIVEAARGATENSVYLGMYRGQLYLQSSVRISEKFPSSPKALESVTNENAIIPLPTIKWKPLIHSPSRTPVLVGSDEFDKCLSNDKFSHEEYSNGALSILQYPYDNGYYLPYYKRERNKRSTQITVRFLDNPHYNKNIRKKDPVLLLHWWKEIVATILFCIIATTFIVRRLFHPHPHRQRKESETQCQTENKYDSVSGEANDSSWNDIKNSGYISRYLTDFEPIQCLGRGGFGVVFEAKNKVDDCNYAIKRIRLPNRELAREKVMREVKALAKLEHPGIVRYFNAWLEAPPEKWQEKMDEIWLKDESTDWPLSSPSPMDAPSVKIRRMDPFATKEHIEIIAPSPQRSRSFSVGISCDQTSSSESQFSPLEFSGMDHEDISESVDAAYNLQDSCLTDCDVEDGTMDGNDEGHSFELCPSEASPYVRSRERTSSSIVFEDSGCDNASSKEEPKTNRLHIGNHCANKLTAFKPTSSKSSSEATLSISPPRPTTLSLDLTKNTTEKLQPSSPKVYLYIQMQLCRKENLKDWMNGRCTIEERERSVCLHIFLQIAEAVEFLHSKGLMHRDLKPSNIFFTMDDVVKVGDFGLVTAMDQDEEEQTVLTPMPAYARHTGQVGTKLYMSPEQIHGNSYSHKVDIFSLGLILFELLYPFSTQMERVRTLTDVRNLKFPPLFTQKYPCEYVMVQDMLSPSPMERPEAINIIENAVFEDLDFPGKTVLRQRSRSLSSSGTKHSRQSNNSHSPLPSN
In words: PERK enzyme assay (HTRF). The note with it: 500 μM ATP; at least one experimental run; read-out: PERK Enzyme (500 μM ATP) IC50. It counts as biochemical. As to the method: Compounds of the invention were assayed for PERK enzyme inhibitory activity with modifications to previously reported conditions (Axten et al. J. Med. Chem., 2012, 55, 7193-7207). Briefly, various concentrations of compounds (maximum 1% DMSO) were dispensed into 384-well plates containing GST-PERK enzyme. After 30-60 minutes of compound pre-incubation, ATP and biotin-eIF2α were added and after 60 minutes the reaction was quenched. After 2 hrs, a fluorescence plate reader was used to measure inhibition and IC50s were calculated.
Enzyme Assay Protocol for PKR-Like Endoplasmic Reticulum Kinase (PERK)—HTRF —% Inhibition
Assay Buffer contains HEPES (pH7.5) 10 mM, CHAPS 2 mM, MgCl2 5 mM and DTT 1 mM in water
Detection Buffer contains HEPES (pH7.5) 10 mM and CHAPS 2 mM in water Assay Plate Preparation:
1. Enzyme Preparation: • 4× Enzyme solution was prepared immediately prior to adding to compound plates. • 3 nM of GST-PERK in Assay buffer. Final [PERK] in 10 μl assay volume=0.75 nM
2. Substrate Preparation: • 4× Substrate solution was prepared immediately prior to adding to compound plates. • 4× Substrate solution in assay buffer 2000 μM ATP and 160 nM Biotin-eIF2α • Final [ATP] in 10 μl assay volume=500 μM • Final [biotin-eIF2a] in 10 μl assay volume=40 nM.
3. Quench/Detection Solution: • 16 nM eIF2 Phospho-Antibody • 16 nM Eu anti-Rabbit IgG • 160 nM Streptavidin-APC • 60 mM EDTA • Final concentration in 10 μL assay volume: 4 nM eIF2 Phospho-Antibody, 4 nM Eu anti-Rabbit IgG 40 nM Streptavidin-APC
The activity of compounds in the PERK enzyme assay was determined at PERK Enzyme (500 μM ATP) IC50 (nM).
As for `Cn1cc(-c2ccc(N3CC(c4cc(F)ccc4F)N(Cc4ccccc4)C3=O)cc2F)c2c(N)ncnc21` (centres unmarked) [Example 20, 1-(4-(4-amino-7-methyl-7H-pyrrolo[2,3-d]pyrimidin-5-yl)-3-fluorophenyl)-3-benzyl-4-(2,5-difluorophenyl)imidazolidin-2-one], the IC50 came out at 3640 nM.
On to `CCN1C(=O)N(c2ccc(-c3cn(C)c4ncnc(N)c34)c(F)c2)CC1c1cccc(C)c1` (centres unmarked) [Example 36, 1-(4-(4-amino-7-methyl-7H-pyrrolo[2,3-d]pyrimidin-5-yl)-3-fluorophenyl)-3-ethyl-4-(m-tolyl)imidazolidin-2-one], for which the IC50 was 462 nM.
In the case of `CC(C)CN1C(=O)N(c2ccc(-c3cn(C)c4ncnc(N)c34)c(F)c2)CC1c1cc(F)ccc1F` (centres unmarked) [Example 14, 1-(4-(4-amino-7-methyl-7H-pyrrolo[2,3-d]pyrimidin-5-yl)-3-fluorophenyl)-4-(2,5-difluorophenyl)-3-isobutylimidazolidin-2-one], the IC50 was determined as 903 nM.

Staying with this assay, now noted: PERK Enzyme (500 μM ATP) IC50; at least one experimental run; read-out: PERK Activity.
Turning to `CCN1C(=O)N(c2ccc(-c3cn(C)c4nc(C)nc(N)c34)c(F)c2)CC1c1cc(F)ccc1F` (single isomer, unassigned) [Example 54, 1-(4-(4-amino-2,7-dimethyl-7H-pyrrolo[2,3-d]pyrimidin-5-yl)-3-fluorophenyl)-4-(2,5-difluorophenyl)-3-ethylimidazolidin-2-one], the IC50 is less than 100 nM.
Take `CCN1C(=O)N(c2ccc(-c3cn(C4CC4)c4ncnc(N)c34)c(F)c2)CC1c1cc(F)ccc1F` (single isomer, unassigned) [Example 124, 1-(4-(4-amino-7-cyclopropyl-7H-pyrrolo[2,3-d]pyrimidin-5-yl)-3-fluorophenyl)-4-(2,5-difluorophenyl)-3-ethylimidazolidin-2-one]: the IC50 was less than 100 nM.
Take `CN1C(=O)N(c2ccc(-c3nn(C)c4ncnc(N)c34)c(F)c2)CC1c1ccc(F)cc1F` (centres unmarked) [Example 99, 1-(4-(4-amino-1-methyl-1H-pyrazolo[3,4-d]pyrimidin-3-yl)-3-fluorophenyl)-4-(2,4-difluorophenyl)-3-methylimidazolidin-2-one]: the IC50 is less than 100 nM.
Still for that read-out and setting: then `Cn1cc(-c2ccc(N3CC(c4cc(F)ccc4F)N(Cc4ccccc4)C3=O)cc2F)c2c(N)ncnc21` (centres unmarked) [Example 20, 1-(4-(4-amino-7-methyl-7H-pyrrolo[2,3-d]pyrimidin-5-yl)-3-fluorophenyl)-3-benzyl-4-(2,5-difluorophenyl)imidazolidin-2-one], with greater than 1000 nM; and `CN1C(=O)N(c2ccc(-c3cn(C4CC4)c4ncnc(N)c34)c(Cl)c2)CC1c1cc(F)cc(F)c1` (single isomer, unassigned) [Example 130, 1-(4-(4-amino-7-cyclopropyl-7H-pyrrolo[2,3-d]pyrimidin-5-yl)-3-chlorophenyl)-4-(3,5-difluorophenyl)-3-methylimidazolidin-2-one], with less than 100 nM; and `Cc1cc(N2CC(c3cc(F)cc(F)c3)N(C)C2=O)ccc1-c1cn(C)c2ncnc(N)c12` (centres unmarked) [Example 118, 1-(4-(4-amino-7-methyl-7H-pyrrolo[2,3-d]pyrimidin-5-yl)-3-methylphenyl)-4-(3,5-difluorophenyl)-3-methylimidazolidin-2-one], with less than 100 nM.
The same measure, in the same setting: then `Cc1c(-c2ccc(N3CC(c4ccc(F)cc4F)N(C)C3=O)cc2F)c2c(N)ncnc2n1C` (centres unmarked) [Example 94, 1-(4-(4-amino-6,7-dimethyl-7H-pyrrolo[2,3-d]pyrimidin-5-yl)-3-fluorophenyl)-4-(2,4-difluorophenyl)-3-methylimidazolidin-2-one], with 100 to 1000 nM; and `CCN1C(=O)N(c2ccc(-c3cn(C)c4ncnc(N)c34)c(F)c2)CC1c1cc(F)cc(F)c1F` (centres unmarked) [Example 55, 1-(4-(4-amino-7-methyl-7H-pyrrolo[2,3-d]pyrimidin-5-yl)-3-fluorophenyl)-3-ethyl-4-(2,3,5-trifluorophenyl)imidazolidin-2-one], with 100 to 1000 nM; and `CN1C(=O)N(c2ccc(-c3cn(C4CC4)c4ncnc(N)c34)c(F)c2)CC1c1cc(F)cc(F)c1` (centres unmarked) [Example 176, 1-(4-(4-amino-7-cyclopropyl-7H-pvrrolo[2,3-d]pyrimidin-5-yl)-3-fluorophenyl)-4-(3,5-difluorophenyl)-3-methylimidazolidin-2-one], with less than 100 nM.
The same measure, in the same setting: with `Cn1cc(-c2ccc(N3CC(c4cc(F)ccc4F)CC3=O)cc2F)c2c(N)ncnc21` (centres unmarked) [Example 31, 1-(4-(4-amino-7-methyl-7H-pyrrolo[2,3-d]pyrimidin-5-yl)-3-fluorophenyl)-4-(2,5-difluorophenyl)pyrrolidin-2-one] the figure was 100 to 1000 nM; with `Cc1nc(N)c2c(-c3ccc(N4CC(c5ccc(F)cc5F)N(C)C4=O)cc3F)c(C)n(C)c2n1` (single isomer, unassigned) [Example 11, 1-(4-(4-amino-2,6,7-trimethyl-7H-pyrrolo[2,3-d]pyrimidin-5-yl)-3-fluorophenyl)-4-(2,4-difluorophenyl)-3-methylimidazolidin-2-one], less than 100 nM.
Turning to `Cn1cc(-c2ccc(N3CC(c4cc(F)cc(F)c4)CC3=O)cc2F)c2c(N)ncnc21` (centres unmarked) [Example 4, 1-(4-(4-Amino-7-methyl-7H-pyrrolo[2,3-d]pyrimidin-5-yl)-3-fluorophenyl)-4-(3,5-difluorophenyl)pyrrolidin-2-one], the IC50 is 100 to 1000 nM.
Turning to `CCN1C(=O)N(c2ccc(-c3cn(C)c4ncnc(N)c34)c(F)c2)CC1c1cccc(C)c1` (centres unmarked) [Example 36, 1-(4-(4-amino-7-methyl-7H-pyrrolo[2,3-d]pyrimidin-5-yl)-3-fluorophenyl)-3-ethyl-4-(m-tolyl)imidazolidin-2-one], the IC50 is 100 to 1000 nM.
Same read-out and setting: then `Cc1cc(N2CC(c3cc(F)cc(F)c3)N(C)C2=O)ccc1-c1cn(C2CC2)c2ncnc(N)c12` (centres unmarked) [Example 119, 1-(4-(4-amino-7-cyclopropyl-7H-pyrrolo[2,3-d]pyrimidin-5-yl)-3-methylphenyl)-4-(3,5-difluorophenyl)-3-methylimidazolidin-2-one], with less than 100 nM; and `CN1C(=O)N(c2ccc(-c3cn(C4CC4)c4ncnc(N)c34)c(F)c2)CC1c1ccccc1` (single isomer, unassigned) [Example 166, 1-(4-(4-amino-7-cyclopropyl-7H-pyrrolo[2,3-d]pyrimidin-5-yl)-3-fluorophenyl)-3-methyl-4-phenylimidazolidin-2-one], with less than 100 nM.
For the compound `CC(C)CN1C(=O)N(c2ccc(-c3cn(C)c4ncnc(N)c34)c(F)c2)CC1c1cc(F)ccc1F` (centres unmarked) [Example 14, 1-(4-(4-amino-7-methyl-7H-pyrrolo[2,3-d]pyrimidin-5-yl)-3-fluorophenyl)-4-(2,5-difluorophenyl)-3-isobutylimidazolidin-2-one], the IC50 is 100 to 1000 nM.
The same measure, in the same setting: then `Cc1nc(N)c2c(-c3ccc(N4CC(c5ccc(F)cc5)N(C)C4=O)cc3F)cn(C3CC3)c2n1` (centres unmarked) [Example 91, 1-(4-(4-amino-7-cyclopropyl-2-methyl-7H-pyrrolo[2,3-d]pyrimidin-5-yl)-3-fluorophenyl)-4-(4-fluorophenyl)-3-methylimidazolidin-2-one], with less than 100 nM; and `Cc1nc(N)c2c(-c3ccc(N4CC(c5ccc(F)c(F)c5)N(C)C4=O)cc3F)cn(C)c2n1` (centres unmarked) [Example 78, 1-(4-(4-amino-2,7-dimethyl-7H-pyrrolo[2,3-d]pyrimidin-5-yl)-3-fluorophenyl)-4-(3,4-difluorophenyl)-3-methylimidazolidin-2-one], with less than 100 nM.
On the same count and under the same terms, with `Cc1nc(N)c2c(-c3ccc(N4CC(c5ccc(F)c(F)c5)N(C)C4=O)cc3F)cn(C)c2n1` (single isomer, unassigned) [Example 80, 1-(4-(4-amino-2,7-dimethyl-7H-pyrrolo[2,3-d]pyrimidin-5-yl)-3-fluorophenyl)-4-(3,4-difluorophenyl)-3-methylimidazolidin-2-one] the figure was less than 100 nM; with `CN1C(=O)N(c2ccc(-c3cn(C4CC4)c4ncnc(N)c34)c(Cl)c2)CC1c1cc(F)cc(F)c1` (single isomer, unassigned) [Example 129, 1-(4-(4-amino-7-cyclopropyl-7H-pyrrolo[2,3-d]pyrimidin-5-yl)-3-chlorophenyl)-4-(3,5-difluorophenyl)-3-methylimidazolidin-2-one], less than 100 nM.
